In one assay the test system is male Sprague Dawley rats. Kind of assay: Infarct size after photothrombotic stroke in the rat. Format: in vivo. Conditions: 5 mg/kg i.p., FIG. 1B. How it is done:
Experimental stroke. The animals were anesthetized by isoflurane (approximately 2% in 02 under spontaneous ventilation) and placed into stereotaxic frame. Temperature was monitored during surgery using a rectal temperature probe and animals were kept at 37.0-37.5±0.2° C. by means of a heating pad with feedback control. A sagittal skin incision was made and subcutaneous connective tissue was removed and the skull was dried. Thereafter, the photosensitizer dye Rose Bengal (0.5 mL at 10 mg/mL) was infused in the tail vein. […] The functional deficit was assessed 2 h after the onset of the stroke using the limb placement test and only the animals having a score 0, for both fore- and hindlimb contralateral to the brain damaged hemisphere were used for the study. […]
Infarct measurements. […] Twelve slices 1 mm apart, were scanned, and the non-lesioned area of the infarcted hemisphere and the non-lesioned contralateral hemisphere were outlined and measured using the ImageJ software (National Institute of Health, USA). Infarct volume (mm^3) was determined by subtracting the area of the non-lesioned ipsilateral hemisphere from that of the intact contralateral hemisphere, and calculated by volumetric integration for each animal.

In a further assay the test system is male C57/BL6 mice. Kind of assay: Infarct size after photothrombotic stroke in the mouse. Format: in vivo. Conditions: 5 mg/kg i.p. for 5 days, FIG. 2B. As to the method: Tissue collection. The animals were deeply anesthetized (isoflurane) and perfusion-fixed with 4% paraformaldehyde (PFA) solution. Brains were collected and immersed in 4% PFA solution for 4 h, then transferred into a 25% sucrose phosphate buffer solution (0.1 M NaH2PO4, 0.1 M Na2HPO4) and stored at 4° C. Brains were then cut in 30 μm slices using a microtome and one slice was kept each 1 mm for infarct size measurement. The others were kept for immunohistochemistry and immunofluorescence. All the slices were stored in anti-freeze solution (30% ethylene glycol, 30% glycerol, 0.01 M NaH2PO4, 0.03 M Na2HPO4) at −20° C.
Immunohistochemistry. Free-floating brain slices were rinsed three times in PBS (phosphate buffer saline) and quenched in 3% H2O2 and 10% MetOH for 15 minutes. […]
Infarct measurements. […] Twelve slices 1 mm apart, were scanned, and the non-lesioned area of the infarcted hemisphere and the non-lesioned contralateral hemisphere were outlined and measured using the ImageJ software (National Institute of Health, USA). Infarct volume (mm^3) was determined by subtracting the area of the non-lesioned ipsilateral hemisphere from that of the intact contralateral hemisphere, and calculated by volumetric integration for each animal. […]
The animals were perfused and immunostained as in Example 1, and the infarct size was assessed as in Example 1.

As for `Cc1nc(C#Cc2cccnc2)cs1` [SIN007, 3-[(2methyl-1,3-thiazol-4-yl)ethynyl]pyridine], in the assay on male Sprague Dawley rats, the “infarct size compared to vehicle” value was “no difference in infarct size”. In the assay with male Sprague Dawley rats (animals of FIG. 1A), this compound yielded an infarct size of 19.5±4.6 mm^3. Also, in the assay with male C57/BL6 mice, the infarct size amounted to 8.9±0.9 mm^3 and the “mean infarct size compared to vehicle” value is “the mean infarct size was the same in the two groups”.

The values are drawn from patent US11033545B2, “Negative allosteric modulators of MGLUR5 for use in the treatment of mature brain damages” (Sinntaxis AB, priority 2016, dated 2021).
